This test addresses T1, truncated form of human Choline kinase α1 that includes residues 75-457 (Homo sapiens, UniProt P35790).
T1 construct: made in house
The test can be described thus: Kinase Assay, coupled (ATP regeneration) LDH/PK assay, NADH absorbance. In kind it is biochemical. As to the method:
Absorbance of NADH (340 nm) was measured over 30 min using a SpectraMax M5 (Molecular Devices). Initial reaction velocity (ΔA340/Δt) was calculated and plotted as a function of inhibitor concentration in a 2-fold dilution series. IC50 values were obtained by fitting the relative velocities to a dose-response model.

Setting [1] is: Examples not designated with an asterisk, footnote prints version 1 of the Kinase Assay, read-out: IC50.
Setting [2] is: Examples designated with an asterisk (*): version 1 of the Kinase Assay, 200 nM enzyme, read-out: IC50.

Like-named read-outs stand apart in the source and are kept apart here.

T1 sequence (P35790 75-457): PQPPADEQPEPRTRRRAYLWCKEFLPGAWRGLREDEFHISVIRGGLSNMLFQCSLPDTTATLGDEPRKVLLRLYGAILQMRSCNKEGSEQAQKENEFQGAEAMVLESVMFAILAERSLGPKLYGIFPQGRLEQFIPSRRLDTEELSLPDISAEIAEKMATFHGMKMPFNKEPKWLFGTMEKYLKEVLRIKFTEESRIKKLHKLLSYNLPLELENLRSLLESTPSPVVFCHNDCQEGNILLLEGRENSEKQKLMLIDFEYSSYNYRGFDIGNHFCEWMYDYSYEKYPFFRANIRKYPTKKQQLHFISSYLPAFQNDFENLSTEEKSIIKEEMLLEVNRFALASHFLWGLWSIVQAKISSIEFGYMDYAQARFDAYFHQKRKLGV

Turning to `CC(=O)NS(=O)(=O)c1ccc(-c2ccc(CN3CCCN(C)CC3)cc2C#N)cc1` [Example 109, N-((2′-cyano-4′-((4-methyl-1,4-diazepan-1-yl)methyl)-[1,1′-biphenyl]-4-yl)sulfonyl)acetamide], under setting [1], the IC50 is < 500 nM. As to `CN1CCCN(Cc2ccc(-c3ccc(C(=O)N4CCCN(C)CC4)cc3-c3ccc(C#N)cc3)c(C#N)c2)CC1` [Example 68, 4-((4-methyl-1,4-diazepan-1-yl)methyl)-4′-(4-methyl-1,4-diazepane-1-carbonyl)-[1:1′:2′,1″-terphenyl]-2,4″-dicarbonitrile], the IC50 under setting [1] is < 500 nM. Regarding `CN1CCCN(Cc2ccc(-c3ccccn3)cc2)CC1` [Example 141, 1-methyl-4-(4-(pyridin-2-yl)benzyl)-1,4-diazepane], under setting [2], the IC50 was < 50000 nM. On to `CN1CCCN(Cc2ccc(-c3ccc(C(=O)N4CCCCC4)cc3)c(C#N)c2)CC1` [Example 34, 4-((4-methyl-1,4-diazepan-1-yl)methyl)-4′-(piperidine-1-carbonyl)-[1,1′-biphenyl]-2-carbonitrile], for which the IC50 was < 500 nM. As to `CC(=O)Nc1cc(-c2ccc(CN3CCCN(C)CC3)cc2C#N)ccc1[N+](=O)[O-]` [Example 110, N-(2′-cyano-4′-((4-methyl-1,4-diazepan-1-yl)methyl)-4-nitro-[1,1′-biphenyl]-3-yl)acetamide], the IC50 under setting [1] is < 500 nM. Take `CN1CCCN(Cc2ccc(CN3CCN(CCO)CC3)cc2)CC1` [Example 147, 2-(4-(4-((4-methyl-1,4-diazepan-1-yl)methyl)benzyl)piperazin-1-yl)ethanol]: the IC50 under setting [2] was < 50000 nM.

With `CN1CCCN(Cc2ccc(-c3ccc(C(=O)N4CCC(O)C4)cc3)c(C#N)c2)CC1` (centres unmarked) [Example 25, 4′-(3-hydroxypyrrolidine-1-carbonyl)-4-((4-methyl-1,4-diazepan-1-yl)methyl)-[1,1′-biphenyl]-2-carbonitrile], the IC50 under setting [1] was < 500 nM. In the case of `CN1CCCN(Cc2ccc(-c3ccc(C(=O)N4CCCN(C)CC4)cc3Br)c(C#N)c2)CC1` [Example 61, 2′-bromo-4-((4-methyl-1,4-diazepan-1-yl)methyl)-4′-(4-methyl-1,4-diazepane-1-carbonyl)[1,1′-biphenyl]-2-carbonitrile], the IC50 under setting [1] was < 500 nM.

In the case of `Cc1cc(C(=O)N2CCCN(C)CC2)ccc1-c1ccc(CN2CCCN(C)CC2)cc1C#N` [Example 60, 2′-methyl-4-((4-methyl-1,4-diazepan-1-yl)methyl)-4′-(4-methyl-1,4-diazepane-1-carbonyl)-[1,1′-biphenyl]-2-carbonitrile], under setting [1], the IC50 is < 2000 nM. As for `CN1CCCN(Cc2ccc(-c3ccc(C(=O)N4CCCN(C)CC4)cc3F)cc2)CC1` [Example 59, (2-fluoro-4′-((4-methyl-1,4-diazepan-1-yl)methyl)-[1,1′-biphenyl]-4-yl)(4-methyl-1,4-diazepan-1-yl)methanone], the IC50 under setting [1] is < 2000 nM. Take `CN1CCCN(Cc2ccc(-c3ccc(/C(N)=N/O)cc3)c(C#N)c2)CC1` [Example 99, (E)-2′-cyano-N′-hydroxy-4′-((4-methyl-1,4-diazepan-1-yl)methyl)-[1,1′-biphenyl]-4-carboximidamide]: the IC50 under setting [1] was < 500 nM. Consider `CN(C)Cc1ccc(-c2ccc(CN3CCCN(C)CC3)cc2C#N)cc1` [Example 12, 4′-((dimethylamino)methyl)-4-((4-methyl-1,4-diazepan-1-yl)methyl)-[1,1′-biphenyl]-2-carbonitrile], for which the IC50 under setting [1] was < 500 nM. `CN1CCCN(Cc2ccc(-c3ccc(C(=O)N4CCC(=O)CC4)cc3)c(C#N)c2)CC1` [Example 31, 4-((4-methyl-1,4-diazepan-1-yl)methyl)-4′-(4-oxopiperidine-1-carbonyl)-[1,1′-biphenyl]-2-carbonitrile]: the IC50 is < 2000 nM. For `CN1CCCN(Cc2ccc(-c3ccc(CN4CCCCC4)cc3)c(C#N)c2)CC1` [Example 13, 4-((4-methyl-1,4-diazepan-1-yl)methyl)-4′-(piperidin-1-ylmethyl)-[1,1′-biphenyl]-2-carbonitrile], under setting [1], the IC50 was < 2000 nM.

Consider `CN1CCCN(Cc2ccc(-c3ccc(C(=O)N4CCCN(C)CC4)cc3)c(F)c2)CC1` [Example 58, (2′-fluoro-4′-((4-methyl-1,4-diazepan-1-yl)methyl)-[1,1′-biphenyl]-4-yl)(4-methyl-1,4-diazepan-1-yl)methanone], for which, under setting [1], the IC50 is < 500 nM. For the molecule `CN1CCCN(Cc2ccc(-c3cn[nH]c3)c(C#N)c2)CC1` [Example 112, 5-((4-methyl-1,4-diazepan-1-yl)methyl)-2-(1H-pyrazol-4-yl)benzonitrile], under setting [1], the IC50 was < 500 nM. On the same count and under the same terms, the result for `Cc1cc(C#N)ccc1-c1ccc(CN2CCCN(C)CC2)cc1C#N` [Example 121, 2′-methyl-4-((4-methyl-1,4-diazepan-1-yl)methyl)-[1,1′-biphenyl]-2,4′-dicarbonitrile] reads < 2000 nM.

Consider `CN1CCCN(Cc2ccc(-c3ccc(N)cc3)c(C#N)c2)CC1` [Example 113, 4′-amino-4-((4-methyl-1,4-diazepan-1-yl)methyl)-[1,1′-biphenyl]-2-carbonitrile], for which, under setting [1], the 50% inhibitory concentration (IC50) was < 2000 nM. As to `Cc1cc(-c2ccc(CN3CCCN(C)CC3)cc2C#N)cnc1N` [Example 118, 2-(6-amino-5-methylpyridin-3-yl)-5-((4-methyl-1,4-diazepan-1-yl)methyl)benzonitrile], the IC50 under setting [1] was < 2000 nM. Still for that read-out and setting: with `CN1CCCN(Cc2ccc(-c3ccc(C(=O)N4CCCN(C)CC4)cc3-c3ccc(S(C)(=O)=O)cc3)c(C#N)c2)CC1` [Example 75, 4-((4-methyl-1,4-diazepan-1-yl)methyl)-4′-(4-methyl-1,4-diazepane-1-carbonyl)-4″-(methylsulfonyl)-[1,1′1:2′,1″-terphenyl]-2-carbonitrile] the figure was < 500 nM. As for `CN1CCCN(Cc2ccc(-c3ccc(CNP(C)(C)=O)cc3)c(C#N)c2)CC1` [Example 46, N-((2′-cyano-4′-((4-methyl-1,4-diazepan-1-yl)methyl)-[1,1′-biphenyl]-4-yl)methyl)-P,P-dimethylphosphinic amide], the IC50 was < 500 nM. Turning to `CN1CCCN(Cc2ccc(-c3ccc4ccccc4c3)c(C#N)c2)CC1` [Example 126, 5-((4-methyl-1,4-diazepan-1-yl)methyl)-2-(naphthalen-2-yl)benzonitrile], under setting [1], the IC50 was < 50000 nM. `CN1CCCN(Cc2ccc(-c3cnc(N)nc3)c(C#N)c2)CC1` [Example 119, 2-(2-aminopyrimidin-5-yl)-5-((4-methyl-1,4-diazepan-1-yl)methyl)benzonitrile]: under setting [1], the IC50 is < 2000 nM. Consider `CN1CCCN(Cc2ccc(-c3ccc(C(F)(F)F)cc3CO)cc2)CC1` [Example 131, (4′-((4-methyl-1,4-diazepan-1-yl)methyl)-4-(trifluoromethyl)-[1,1′-biphenyl]-2-yl)methanol], for which the IC50 under setting [1] was < 50000 nM. Consider `CN1CCCN(Cc2ccc(-c3ccc(-c4nnn[nH]4)cc3)cc2)CC1` [Example 129, 1-((4′-(1H-tetrazol-5-yl)-[1,1′-biphenyl]-4-yl)methyl)-4-methyl-1,4-diazepane], for which, under setting [1], the IC50 was < 50000 nM. Still for that read-out and setting: with `Cc1cc(S(=O)(=O)N(C)C)ccc1-c1ccc(CN2CCCN(C)CC2)cc1C#N` [Example 98, 2′-cyano-N,N,2-trimethyl-4′-((4-methyl-1,4-diazepan-1-yl)methyl)-[1,1′-biphenyl]-4-sulfonamide] the figure was < 500 nM; with `Cc1ccc(-c2cc(C(=O)N3CCCN(C)CC3)ccc2-c2ccc(CN3CCCN(C)CC3)cc2C#N)cc1` [Example 70, 4″-methyl-4-((4-methyl-1,4-diazepan-1-yl)methyl)-4′-(4-methyl-1,4-diazepane-1-carbonyl)-[1,1′1:2′,1″-terphenyl]-2-carbonitrile], < 500 nM. The same measure, in the same setting: the result for `CN1CCCN(Cc2ccc(-c3ccc(C(=O)N4CCC(O)CC4)cc3)c(C#N)c2)CC1` [Example 19, 4′-(4-hydroxypiperidine-1-carbonyl)-4-((4-methyl-1,4-diazepan-1-yl)methyl)-[1,1′-biphenyl]-2-carbonitrile] reads < 500 nM; that for `CN1CCCN(Cc2ccc(-c3ccc(CN4CCCN(C)CC4)cc3CN)cc2)CC1` [Example 52, (4,4′-bis((4-methyl-1,4-diazepan-1-yl)methyl)-[1,1′-biphenyl]-2-yl)methanamine], < 500 nM; that for `CN1CCCN(Cc2ccc(-c3ccc(C(=O)N(C)C)cc3)c(C#N)c2)CC1` [Example 20, 2′-cyano-N,N-dimethyl-4′-((4-methyl-1,4-diazepan-1-yl)methyl)-[1,1′-biphenyl]-4-carboxamide], < 50000 nM. In the case of `C=CCN1CCN(Cc2ccc(CN3CCCN(C)CC3)cc2)CC1` [Example 146, 1-(4-((4-allylpiperazin-1-yl)methyl)benzyl)-4-methyl-1,4-diazepane], under setting [2], the half-maximal inhibitory concentration (IC50) is < 50000 nM. Take `CN1CCCN(Cc2ccc(-c3ccc(C(=O)N4CCC(N5CCOCC5)CC4)cc3)cc2)CC1` [Example 39, (4′-((4-methyl-1,4-diazepan-1-yl)methyl)-[1,1′-biphenyl]-4-yl)(4-morpholinopiperidin-1-yl)methanone]: under setting [1], the IC50 is < 50000 nM. For `CN1CCCN(Cc2ccc(-c3ccc(C(=O)N4CCOCC4)cc3)c(C#N)c2)CC1` [Example 36, 4-((4-methyl-1,4-diazepan-1-yl)methyl)-4′-(morpholine-4-carbonyl)-[1,1′-biphenyl]-2-carbonitrile], the IC50 is < 2000 nM.

On to `CN1CCCN(Cc2ccc(-c3ccc(N)c([N+](=O)[O-])c3)c(C#N)c2)CC1` [Example 101, 4′-amino-4-((4-methyl-1,4-diazepan-1-yl)methyl)-3′-nitro-[1,1′-biphenyl]-2-carbonitrile], for which the IC50 under setting [1] was < 500 nM. Regarding `CNC(=O)NCc1ccc(-c2ccc(CN3CCCN(C)CC3)cc2C#N)cc1` [Example 47, 1-((2′-cyano-4′-((4-methyl-1,4-diazepan-1-yl)methyl)-[1,1′-biphenyl]-4-yl)methyl)-3-methylurea], under setting [1], the IC50 is < 500 nM.

For orientation: IC50 means the concentration at which inhibition is half-maximal.

Values taken from patent US9834521B2, “Choline kinase inhibitors” (ARIAD Pharmaceuticals, Inc., priority 2013, dated 2017).
